# Reference: PubChem BioAssay (NCI)
#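 Briefly, cells in 96-well plates were exposed to five compound concentrations for 48 h, and endpoints were estimated by linear interpolation. Abbreviation: GI50, concentration required for 50% inhibition of growth. TGI marks complete inhibition of growth.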
# Experiments:
# Experiment in all cases: growth of human tumour cells (NCI), 48 h
# [1] = tested on: DU-145 prostate
# [2] = tested on: COLO 205 colon
# [3] = tested on: MDA-MB-231 breast
# [4] = tested on: UO-31 renal
# [5] = tested on: UACC-62 melanoma
# [6] = tested on: UACC-257 melanoma
# [7] = tested on: CCRF-CEM leukemia
# [8] = tested on: NCI-H522 lung
# [9] = tested on: SN12C renal
# [10] = tested on: RPMI-8226 leukemia
# [11] = tested on: NCI/ADR-RES ovarian
# [12] = tested on: HCC-2998 colon
# [13] = tested on: M14 melanoma
# [14] = tested on: A498 renal
# [15] = tested on: OVCAR-5 ovarian
# [16] = tested on: HT29 colon
# [17] = tested on: RXF 393 renal
# [18] = tested on: OVCAR-4 ovarian
# [19] = tested on: SF-539 CNS
# [20] = tested on: K-562 leukemia
# [21] = tested on: NCI-H23 lung
# [22] = tested on: KM12 colon
# [23] = tested on: CAKI-1 renal
# [24] = tested on: ACHN renal
# [25] = tested on: NCI-H460 lung
# [26] = tested on: HS 578T breast
# [27] = tested on: SF-295 CNS
# [28] = tested on: MALME-3M melanoma
# [29] = tested on: NCI-H226 lung
compound,measurement,setting,value
CSc1ccc(/C(=N/N=C(N)N)c2ccc(F)cc2)cc1,GI50,[1],415 nM
same,TGI,[1],3.84 µM
same,GI50,[2],415 nM
same,TGI,[2],1770 nM
same,GI50,[3],807 nM
same,TGI,[3],10 µM
same,GI50,[4],856 nM
same,TGI,[4],4.45 µM
same,GI50,[5],417 nM
same,TGI,[5],7.3 µM
same,GI50,[6],1460 nM
same,TGI,[6],11.2 µM
same,GI50,[7],414 nM
same,TGI,[7],15.7 µM
same,GI50,[8],392 nM
same,TGI,[8],11.7 µM
same,GI50,[9],672 nM
same,TGI,[9],10 µM
same,GI50,[10],468 nM
same,TGI,[10],3.16 µM
same,GI50,[11],1660 nM
same,TGI,[11],7.25 µM
same,GI50,[12],314 nM
same,TGI,[12],1180 nM
same,GI50,[13],308 nM
same,TGI,[13],1100 nM
same,GI50,[14],390 nM
same,TGI,[14],2960 nM
same,GI50,[15],651 nM
same,TGI,[15],12.7 µM
same,GI50,[16],350 nM
same,TGI,[16],5.47 µM
same,GI50,[17],189 nM
same,TGI,[17],708 nM
same,GI50,[18],982 nM
same,TGI,[18],15.6 µM
same,GI50,[19],367 nM
same,TGI,[19],1650 nM
same,GI50,[20],336 nM
same,TGI,[20],6.52 µM
same,GI50,[21],328 nM
same,TGI,[21],3.87 µM
same,GI50,[22],423 nM
same,TGI,[22],11.7 µM
same,GI50,[23],536 nM
same,TGI,[23],4.82 µM
same,GI50,[24],724 nM
same,TGI,[24],10.5 µM
same,GI50,[25],367 nM
same,TGI,[25],3.4 µM
same,GI50,[26],872 nM
same,TGI,[26],10.5 µM
same,GI50,[27],304 nM
same,TGI,[27],10.5 µM
same,GI50,[28],1010 nM
same,TGI,[28],3.25 µM
same,GI50,[29],1850 nM
same,TGI,[29],14.7 µM
